Reference: patent US20210267978A1, “NANOPARTICLE FORMULATIONS OF IKE AND METHODS OF USE THEREOF” (The Trustees of Columbia University in the City of New York, priority 2018, published 2021)

Key:
[1] = test system: SUDHL6 subcutaneous xenografts; experiment: IKE efficacy study, tumor volume; type: in vivo, NCG mice; settings: starting from day 9 of treatment
Method: IKE was dissolved in 5% DMSO/95% HBSS at pH 4 to create a 4 mg/mL solution. 5% DMSO/95% HBSS at pH 4 was used as vehicle 1. IKE PEG-PLGA nanoparticles and unfunctionalized PEG-PLGA nanoparticles (without IKE loading) (vehicle 2) prepared with a NanoAssemblr were dialyzed with deionized water overnight, the water was changed at least twice. Dialyzed IKE-PEG-PLGA nanoparticles and unfunctional PEG-PLGA nanoparticles were concentrated by Amicon Ultra-15 Centrifugal Filter Units to create a solution with 80 mg/mL PEG-PLGA nanoparticles. All above solutions were sterilized by filter through a 0.2 μm syringe filter.
NCG mice, 6-weeks old, were injected with 10 million SUDHLO-6 cells subcutaneously. […] Tumor volume was measured daily with electronic caliper and calculated using the formula: 0.5×length×width^2. […] Tumor volume change was analyzed in Prism using one-way ANOVA. Tumor tissues were analyzed as described in the RT-qPCR, immunofluorescence, TBARS, and lipidomics sections below.
We investigated the efficacy of IKE in vivo in male NCG mice bearing SUDHL6 subcutaneous xenografts. […] During the experimental period, mouse weight and tumor volume were measured daily to determine IKE's antitumor effect and possible toxicity. Tumor growth was calculated as the fold change relative to original tumor volume on day 0 before the first dose (FIG. 4C). […]

SUDHL6 cells = experiment: qPCR analysis of gene expression in cell culture; type: cell-based
Method: To perform qPCR analysis in cell culture, DLBCL cells were treated with 0-10 μM IKE, Fer-1, or β-Me for the indicated times. RNA was extracted using the Qiashredder and Qiagen RNeasy Mini kits (Qiagen) according to the manufacture's protocol. 2 μg RNA from each sample was reversed transcribed to cDNA using a High Capacity cDNA Reverse Transcription Kit (Thermo Fisher Scientific, 4368814). Quantitative PCR reactions were performed using Power SYBR Green PCR Master Mix (Applied Biosystems) with triplicate measurement on ViiA 7 Real-Time PCR instrument (Thermo Fischer). HPRT1 was used as an internal reference. Differences in mRNA levels compared with HPRT1 were computed between vehicle and experimental groups using the ΔΔCt method. The primers used in the study were listed below.

[2] = test system: SUDHL6 xenograft tumor tissue; experiment: TBARS measurement in mouse tumor tissue from efficacy study; type: in vivo, NCG mice
Method: NCG mice, 6-weeks old, were injected with 10 million SUDHLO-6 cells subcutaneously. The mice were treated after the tumor size reached 100 mm^3. Mice were separated randomly into treatment groups and dosed with 23 mg/kg IKE, 40 mg/kg IKE, 23 mg/kg IKE PEG-PLGA nanoparticles (equal to 700 mg/kg PEG-PLGA), vehicle 1 (based on volume), and vehicle 2 (700 mg/kg PEG-PLGA) once daily by IP for 14 days. Tumor volume was measured daily with electronic caliper and calculated using the formula: 0.5×length×width^2. 3 h after the final dosage, mice were euthanized with CO2 and tumor tissue was dissected, weighed, divided into 4-6 segments, frozen, and stored at −80° C. Tumor volume change was analyzed in Prism using one-way ANOVA. Tumor tissues were analyzed as described in the RT-qPCR, immunofluorescence, TBARS, and lipidomics sections below.
10-25 mg tumor tissue was placed into a 1.5 mL Eppendorf microfuge tube, and the sample was placed on dry ice until use. 20 μL/mg ice cold RIPA buffer with cocktail protease inhibitor (Roche) was added. The tumor tissue was homogenized at speed 5 for 30 sec using Bead Ruptor 4. The sample was centrifuged at 4° C. at 1,600×g for 10 min. The sample was kept on ice and the supernatant used for analysis. […] TBARS was measured using a TBARS Assay Kit (Cayman 700870) following the manufacture's protocol.

[3] = test system: SUDHL6 xenograft tumor tissue; experiment: Reduced glutathione measurement in mouse tumor tissue after one IKE dose; type: in vivo, NCG mice; settings: single dose IKE 50 mg/kg, starting at 4 hours

SMILES: CC(C)Oc1ccc(C(=O)Cn2ccnc2)cc1-n1c(CN2CCN(C(=O)COc3ccc(Cl)cc3)CC2)nc2ccccc2c1=O [IKE, Imidazole ketone erastin]
- tumor growth (tumor volume fold change vs day 0) ([1]; 23 mg/kg i.p. once daily): significant decrease in tumor growth
- tumor growth (tumor volume fold change vs day 0) ([1]; 40 mg/kg i.p. once daily): significant decrease in tumor growth
- GPX4, CBS and ACSL4 expression (SUDHL6 cells; DLBCL cells, IKE treatment (data not shown)): not upregulated
- SLC7A11, PTGS2 and CHAC1 expression (SUDHL6 cells; SUDHL6 cells following IKE treatment): significantly increased
- SLC7A11 expression induced starting from (time post incubation) (SUDHL6 cells; SUDHL-6 cells, 500 nM IKE): 3 h
- expression of lipid metabolism genes ACC1, ELOVL7, ATGL, sPLA2F, LPEAT1, LPCAT4, ALOX12, ALOX15 (SUDHL6 cells; SUDHL-6 cells, 500 nM IKE): upregulated
- highest mRNA change (CHAC1) (SUDHL6 cells; SUDHL-6 cells, 500 nM IKE): 33 fold
- increased PTGS2 expression (SUDHL6 cells; SUDHL-6 cells, 500 nM IKE, starting from 5 minutes): over 10 fold
- increased CHAC1 expression (SUDHL6 cells; SUDHL-6 cells, 500 nM IKE, starting from post 5 minutes): over 5 fold
- MDA increase (TBARS assay, MDA-TBA adducts' fluorescence) ([2]; 23 mg/kg daily for 14 days): 1.4 fold
- MDA increase (TBARS assay, MDA-TBA adducts' fluorescence) ([2]; 40 mg/kg daily for 14 days): 1.8 fold
- GSH depletion in tumor tissue [3]: over 50%
